Key:
[1] = system: A549 cells; assay: Cell viability MTT assay, A549; type: cell-based, human; settings: for viability at 50 µM: A549, 50 µM, n = 4
Protocol: (§1) Human breast cancer cell line MCF-7 and T-47D, lung cancer cell line A549, and colon cancer cell line HT-29 were cultured under 5% carbon dioxide at 37 °C in DMEM Glutamax (Gibco, Life Technologies) supplemented with 10% (v/v) FBS. They were split in a ratio of 1:3–1:6 (ideally 2–4 × 10,000 cells/cm^2) when they reached 70–80% confluence using 0.25% Trypsin-EDTA. For cell viability MTT assay, cells were seeded into 96-well clear bottom culture plates (Corning, Lowell, MA, USA) at a density of 5 × 10^3 cells/well and settled at 37 °C for 24 h.
(§2) Seeded cells were treated with various concentrations of compounds for desired time period (24, 48 and 72 h). After the treatments, the media were removed from each well, and replaced with 25 μL of serum-free media and 25 μL of MTT Reagent (cat. no., ab211091; Abcam, Cambridge, MA, USA). The plate was then incubated at 37 °C for 3 h, and 75 μL of MTT Solvent (cat. no., ab211091; Abcam) was added into each well after incubation. The absorbance was evaluated at 590 nm. Cell-wells treated with 0.1% DMSO were used as positive control and no cell-wells were used as background control.

[2] = molecular target: T1, human CaV3.1 (Homo sapiens, UniProt O43497); assay: T-type calcium channel window current FLIPR assay, CaV3.1; type: cell-based; settings: n = 3, read-out: IC50 CaV3.1 (LVA CaVs)
T1 construct: expressed in transfected cells; host or cells: HEK 293 T cells, transient transfection (FuGENE HD)
Protocol: (§3) The human embryonic kidney 293 (HEK 293) cell lines (from Emmanuel Bourinet, Montpellier, France) stably expressing CaV3.2 or CaV3.3 were cultured under 5% carbon dioxide at 37 °C in Dulbecco’s Modified Eagle Medium (DMEM) Glutamax (Gibco, Life Technologies, Carlsbad, CA, USA) supplemented with 10% (v/v) fetal bovine serum (FBS), 100 U/mL penicillin, 100 μg/mL streptomycin (Gibco, Life Technologies, Carlsbad, CA, USA), and 750 μg/mL geneticin (G418) (Gibco, Life Technologies). The Chinese Hamster Ovary (CHO) cell lines (Emmanuel Bourinet, Montpellier, France) expressing CaV3.1 were cultured under 5% carbon dioxide at 37 °C in Alpha Minimum Essential Media (MEM) Glutamax (Gibco, Life Technologies), supplemented with 10% (v/v) fetal bovine serum (FBS) and 300 μg/mL geneticin (G418) (Gibco, Life Technologies). The human neuroblastoma SH-SY5Y cells (Victor Diaz, Goettingen, Germany) were cultured under 5% carbon dioxide at 37 °C in RPMI 1640 antibiotic-free medium (Invitrogen, Carlsbad, CA, USA), supplemented with 15% FBS and 2 mM GlutaMAX™ (Invitrogen). D-PBS (Gibco, Life Technologies) was used to wash the cells, and 0.25% Trypsin-EDTA (Gibco, Life Technologies) was used to detach cells from the flask surface. They were split in a ratio of 1:5 (ideally 1000 cells/cm^2) when they reached 70–80% confluence (every 2–3 days). Transiently transfected CaV3.1 HEK293 T cells were used in FLIPR Assays. HEK 293 T cells were cultured under 5% carbon dioxide at 37 °C in DMEM supplemented with 10% (v/v) FBS. D-PBS was used to wash the cells, and 0.25% Trypsin-EDTA was used to detach cells from the flask surface. The cells were split and seeded at 6 million cells per T175 flask, to reach 70–80% confluence after 24 h. The next day, 12 μg DNA of human CaV3.1 was incubated in 900 μL serum-free DMEM with 36 μL FuGENE HD transfection reagent (Promega Corporation, Madison, WI, USA) (1:3 DNA/Fugene ratio) for 20 min, and then the mixture was added into the cell flask slowly, drop by drop. After the transfection, the cells were cultured under 5% carbon dioxide at 37 °C for 24 h and then moved to a 28 °C incubator.
(§4) HEK 293 cells stably expressing CaV3.2 or CaV3.3 were seeded into 384-well black wall clear bottom plates (Corning) at a density of 30,000 cells per well. Transiently transfected CaV3.1HEK293 T cells were seeded into 384-well black wall clear bottom plates at a density of 60,000 cells per well. Once the cells reached 90–95% confluence after 24 h, the media were removed from the wells and replaced with 20 μL of 10% calcium 4 dye (Molecular Devices, Sunnyvale, CA, USA) in HBSS-HEPES (containing 5 mM KCl, 10 mM HEPES, 140 mM NaCl, 10 mM glucose, and 0.5 mM CaCl2, pH 7.4) with 0.1% bovine serum albumin (BSA). The cells were incubated for 30 min at 37 °C in the presence of 5% carbon dioxide. Each well on the reagent plates for the first addition contained 15 μL different concentrations of compounds dissolved in HBSS-HEPES containing 0.1% BSA and <0.5% DMSO and was incubated for 20 min after loaded. Positive and negative controls contained 15 μL of HBSS-HEPES (0.1% BSA) alone. The plates were placed in the FLIPR^TETRA (Molecular Devices, Sunnyvale, CA, USA) programmed to measure maximum fluorescence intensity following a second addition of the agonist 5 mM CaCl2. The fluorescence readings were recorded and converted as described previously, and HBSS-HEPES (0.1% BSA) was used in the second addition as a negative control.

[3] = molecular target: CaV3.2 (Homo sapiens, UniProt O95180); assay: T-type calcium channel window current FLIPR assay, CaV3.2; type: cell-based; settings: FLIPR window current, n = 3; read-out: IC50 CaV3.2 (LVA CaVs)
Protocol: as §3, §4

[4] = system: HT-29 cells; assay: Cell viability MTT assay, HT-29; type: cell-based, human; settings: for viability at 50 µM: HT-29, 50 µM, n = 4; for preferential anti-proliferative activity on HT-29: versus MCF-7, T-47D, A549
Protocol: as §1, §2

[5] = system: voltage-gated calcium channels (VGCC); assay: VGCC FLIPR cell-based assays, all channels (overall observation); design: species or system human
Protocol: as §4
(§5) SH-SY5Y cells were seeded into 384-well black wall clear bottom plates at a density of 15,000 cells per well, resulting in 90–95% confluence after 24 h. The media were then removed from the wells and replaced with 20 μL of 10% calcium 4 dye (Molecular Devices) in physiological salt solution (PSS) (containing 5.9 mM KCl, 1.4 mM MgCl2, 10 mM HEPES, 1.2 mM NaH2 PO4, 5 mM NaHCO3, 140 mM NaCl, 11.5 mM glucose, and 1.8 mM CaCl2, pH 7.4) with 0.1% BSA. As reported, for N-type calcium channel FLIPR assays the cells were pre-incubated with 10 µM nifedipine added in the dye to ensure full inhibition of L-type calcium responses. For L-type calcium channel FLIPR assays, the cells were pre-incubated with 1 µM CVID added in the dye to ensure full inhibition of N-type calcium responses. Positive control on the first reagent plate contained 15 μL of PSS (0.1% BSA), whereas PSS (0.1% BSA) containing 1 µM CVID and 10 µM nifedipine (final concentration) was used as a negative control. The fluorescence readings were recorded and converted as described previously, and agonist containing 90 mM KCl + 5 mM CaCl2 was used in the second addition.

[6] = system: CaV1; assay: HVA L-type calcium channel FLIPR assay in SH-SY5Y cells; type: cell-based, human; settings: 1 µM CVID present, n = 3, read-out: IC50 CaV1 (HVA CaVs)
Protocol: as §3, §5

[7] = molecular target: CaV3.3 (Homo sapiens, UniProt Q9P0X4); assay: T-type calcium channel window current FLIPR assay, CaV3.3; type: cell-based; settings: FLIPR window current; for IC50: n = 3, read-out: IC50 CaV3.3 (LVA CaVs)
Protocol: as §3, §4

[8] = molecular target: T2, CaV2.2 (Homo sapiens, UniProt Q00975); assay: HVA N-type calcium channel FLIPR assay in SH-SY5Y cells; type: cell-based; settings: 10 µM nifedipine present, n = 3, read-out: IC50 CaV2.2 (HVA CaVs)
T2 construct: endogenous in cells; host or cells: SH-SY5Y human neuroblastoma cells
T2 sequence (Q00975 whole entry): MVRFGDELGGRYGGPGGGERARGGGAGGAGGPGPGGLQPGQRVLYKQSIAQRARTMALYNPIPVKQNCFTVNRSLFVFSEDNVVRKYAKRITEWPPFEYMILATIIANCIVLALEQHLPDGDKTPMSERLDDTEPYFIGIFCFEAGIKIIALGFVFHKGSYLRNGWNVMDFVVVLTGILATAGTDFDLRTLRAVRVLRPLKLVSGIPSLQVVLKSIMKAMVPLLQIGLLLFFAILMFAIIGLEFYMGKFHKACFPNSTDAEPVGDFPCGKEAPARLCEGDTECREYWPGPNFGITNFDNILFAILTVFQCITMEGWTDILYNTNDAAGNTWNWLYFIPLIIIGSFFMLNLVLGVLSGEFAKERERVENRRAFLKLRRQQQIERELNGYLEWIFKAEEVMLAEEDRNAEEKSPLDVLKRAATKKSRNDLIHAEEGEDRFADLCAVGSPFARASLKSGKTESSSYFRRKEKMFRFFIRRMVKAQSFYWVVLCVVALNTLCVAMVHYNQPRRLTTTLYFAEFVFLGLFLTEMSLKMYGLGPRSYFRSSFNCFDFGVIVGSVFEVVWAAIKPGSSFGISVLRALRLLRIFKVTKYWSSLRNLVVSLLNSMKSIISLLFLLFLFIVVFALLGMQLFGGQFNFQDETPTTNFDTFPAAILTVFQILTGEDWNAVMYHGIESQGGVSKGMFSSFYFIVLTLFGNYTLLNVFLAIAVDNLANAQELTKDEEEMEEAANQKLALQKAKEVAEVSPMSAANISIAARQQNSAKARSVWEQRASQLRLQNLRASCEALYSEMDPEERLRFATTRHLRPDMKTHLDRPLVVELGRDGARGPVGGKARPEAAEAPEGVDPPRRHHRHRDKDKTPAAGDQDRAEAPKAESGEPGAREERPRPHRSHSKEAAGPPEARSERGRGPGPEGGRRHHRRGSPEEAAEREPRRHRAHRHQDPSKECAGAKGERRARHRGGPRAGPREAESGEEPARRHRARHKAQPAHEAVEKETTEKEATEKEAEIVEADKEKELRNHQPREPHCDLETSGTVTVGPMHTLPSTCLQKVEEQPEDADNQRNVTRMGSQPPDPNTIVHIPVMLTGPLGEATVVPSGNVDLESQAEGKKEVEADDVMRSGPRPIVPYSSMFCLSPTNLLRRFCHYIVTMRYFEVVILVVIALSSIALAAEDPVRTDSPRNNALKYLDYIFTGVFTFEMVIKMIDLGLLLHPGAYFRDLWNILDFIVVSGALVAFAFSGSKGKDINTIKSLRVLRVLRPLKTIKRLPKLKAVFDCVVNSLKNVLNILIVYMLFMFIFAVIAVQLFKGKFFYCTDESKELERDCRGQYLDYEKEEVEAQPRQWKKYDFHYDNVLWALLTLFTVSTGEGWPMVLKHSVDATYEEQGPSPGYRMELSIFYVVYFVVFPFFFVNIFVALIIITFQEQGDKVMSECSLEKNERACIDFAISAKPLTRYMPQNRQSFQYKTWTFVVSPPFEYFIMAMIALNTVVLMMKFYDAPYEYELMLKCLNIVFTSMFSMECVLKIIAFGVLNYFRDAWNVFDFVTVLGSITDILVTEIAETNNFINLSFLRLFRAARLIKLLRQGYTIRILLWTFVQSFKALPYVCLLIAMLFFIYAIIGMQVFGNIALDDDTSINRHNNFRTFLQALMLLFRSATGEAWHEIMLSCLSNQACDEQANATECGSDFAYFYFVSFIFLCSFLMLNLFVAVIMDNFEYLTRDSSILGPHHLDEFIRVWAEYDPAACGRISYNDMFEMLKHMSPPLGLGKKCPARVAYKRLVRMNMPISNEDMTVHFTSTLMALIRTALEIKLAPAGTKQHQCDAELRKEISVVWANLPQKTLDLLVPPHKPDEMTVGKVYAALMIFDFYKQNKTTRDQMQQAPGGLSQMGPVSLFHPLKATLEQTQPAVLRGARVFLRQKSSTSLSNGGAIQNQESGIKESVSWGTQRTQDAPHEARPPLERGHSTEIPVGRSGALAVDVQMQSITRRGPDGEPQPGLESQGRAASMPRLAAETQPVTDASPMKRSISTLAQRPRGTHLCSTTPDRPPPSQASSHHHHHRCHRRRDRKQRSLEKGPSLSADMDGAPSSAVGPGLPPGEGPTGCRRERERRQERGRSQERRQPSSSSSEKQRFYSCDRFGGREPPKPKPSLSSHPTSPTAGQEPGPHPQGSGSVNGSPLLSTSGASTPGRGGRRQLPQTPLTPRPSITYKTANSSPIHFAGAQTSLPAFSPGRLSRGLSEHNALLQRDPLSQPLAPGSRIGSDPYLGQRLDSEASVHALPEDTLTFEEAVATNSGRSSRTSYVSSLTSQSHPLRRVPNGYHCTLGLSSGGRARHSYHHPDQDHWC
T2 sequence (P54289 25-956 partner limits assumed): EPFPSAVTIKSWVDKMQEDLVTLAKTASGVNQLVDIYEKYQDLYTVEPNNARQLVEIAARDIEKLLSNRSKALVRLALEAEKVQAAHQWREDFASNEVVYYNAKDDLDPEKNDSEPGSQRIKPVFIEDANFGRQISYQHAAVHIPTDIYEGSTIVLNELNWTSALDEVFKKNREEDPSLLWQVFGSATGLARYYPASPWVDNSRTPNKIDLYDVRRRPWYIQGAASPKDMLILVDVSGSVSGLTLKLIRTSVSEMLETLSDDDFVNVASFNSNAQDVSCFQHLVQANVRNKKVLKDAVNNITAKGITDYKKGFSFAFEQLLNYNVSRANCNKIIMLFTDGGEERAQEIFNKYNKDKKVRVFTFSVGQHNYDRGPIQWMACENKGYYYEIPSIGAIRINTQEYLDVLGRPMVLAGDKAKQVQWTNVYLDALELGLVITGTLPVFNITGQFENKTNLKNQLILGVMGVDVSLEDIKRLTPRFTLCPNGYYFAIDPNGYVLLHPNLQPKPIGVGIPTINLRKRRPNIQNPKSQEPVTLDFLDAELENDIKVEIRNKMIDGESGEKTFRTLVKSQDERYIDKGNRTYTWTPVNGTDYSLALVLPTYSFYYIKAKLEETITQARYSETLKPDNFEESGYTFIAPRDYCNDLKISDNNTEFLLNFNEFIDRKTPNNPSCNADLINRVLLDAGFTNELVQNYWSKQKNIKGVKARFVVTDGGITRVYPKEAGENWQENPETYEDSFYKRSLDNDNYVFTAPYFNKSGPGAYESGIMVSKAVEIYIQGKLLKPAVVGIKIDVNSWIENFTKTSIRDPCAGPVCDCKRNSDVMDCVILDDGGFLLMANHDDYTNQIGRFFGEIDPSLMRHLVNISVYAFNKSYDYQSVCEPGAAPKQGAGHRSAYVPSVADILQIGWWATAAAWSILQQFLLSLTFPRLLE
T2 sequence (P54289 957-1103 partner limits assumed): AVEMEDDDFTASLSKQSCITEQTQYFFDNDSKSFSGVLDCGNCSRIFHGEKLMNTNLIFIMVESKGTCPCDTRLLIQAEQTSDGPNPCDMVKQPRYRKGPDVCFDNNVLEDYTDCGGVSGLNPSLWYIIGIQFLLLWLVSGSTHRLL
T2 sequence (P54284 whole entry partner): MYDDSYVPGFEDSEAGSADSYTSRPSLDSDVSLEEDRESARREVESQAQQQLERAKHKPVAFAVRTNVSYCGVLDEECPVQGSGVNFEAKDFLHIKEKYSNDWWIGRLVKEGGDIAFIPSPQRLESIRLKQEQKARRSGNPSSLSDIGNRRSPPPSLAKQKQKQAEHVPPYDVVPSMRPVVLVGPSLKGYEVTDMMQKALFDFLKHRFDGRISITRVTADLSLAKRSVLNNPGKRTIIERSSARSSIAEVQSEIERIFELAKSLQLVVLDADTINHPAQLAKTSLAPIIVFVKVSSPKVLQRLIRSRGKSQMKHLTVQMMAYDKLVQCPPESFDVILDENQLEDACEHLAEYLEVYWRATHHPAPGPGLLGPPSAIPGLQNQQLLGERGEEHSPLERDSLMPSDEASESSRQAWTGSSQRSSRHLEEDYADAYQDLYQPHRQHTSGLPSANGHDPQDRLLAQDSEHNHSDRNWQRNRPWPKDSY
Protocol: as §3, §5

[9] = system: MCF-7 cells; assay: Cell viability MTT assay, MCF-7; type: cell-based, human; settings: Homo sapiens, 72 h treatment; for viability at 50 µM: MCF7, 50 µM, n = 4
Protocol: as §1, §2

[10] = system: T-47D cells; assay: Cell viability MTT assay, T-47D; type: cell-based, human; settings: Homo sapiens, T47D, 72 h treatment; for viability at 50 µM: n = 4
Protocol: as §1, §2

[11] = Solubility in assay buffer with 0.1% BSA; type: physicochemical

Structure (SMILES)	viability at 50 µM ([1]; Homo sapiens, 72 h treatment) [%]	IC50 ([1]; Homo sapiens, A549, 72 h, 72 h treatment, n = 3) [µM]	IC50 [2] [µM]	IC50 [3] [µM]	better antiproliferative effect on HT-29 cell viability than on the other three cancer cell lines ([4]; 72 h treatment) [fold]	viability at 50 µM ([4]; Homo sapiens, 72 h treatment) [%]	IC50 ([4]; Homo sapiens, HT-29, 72 h, 72 h treatment, n = 3) [µM]	preferential anti-proliferative activity on HT-29 [4]	inhibition of all the Ca2+ responses [5]	IC50 [6] [µM]	IC50 [7] [µM]	IC50 [8] [µM]	viability at 50 µM [9] [%]	IC50 ([9]; MCF7, 72 h, n = 3) [µM]	viability at 50 µM [10] [%]	IC50 ([10]; 72 h, n = 3) [µM]	effect on A549 cell proliferation ([1]; 50 µM, 72 h)	inhibition against CaV3.3 [7]	solubility in buffer [11]
O=C(c1c[nH]c2cc(Br)ccc12)c1cn(S(=O)(=O)O)c2cc(Br)ccc12 [V]	14.1 ± 0.15	27	92.1 ± 4.69	67.5 ± 6.05	≥ 2	0.93 ± 0.06	15	preferential anti-proliferative activity	poor inhibition	88.2 ± 7.95	92.6 ± 1.46	90.2 ± 4.93	29.52 ± 0.19	51	31.4 ± 0.43	38	–	–	–
O=C(c1c[nH]c2ccccc12)c1cn(S(=O)(=O)O)c2ccccc12 [III]	211 ± 4.69	–	58.8 ± 6.85	106 ± 11.8	–	21.6 ± 1.1	–	preferential anti-proliferative activity	–	192 ± 30.5	17.8 ± 4.64	60.9 ± 3.37	84.9 ± 5.75	–	79.7 ± 3.74	–	promoted A549 cell proliferation	moderate inhibition	–
Cc1ccc(S(=O)(=O)n2cc(C(=O)c3cn(S(=O)(=O)c4ccc(C)cc4)c4ccccc34)c3ccccc32)cc1 [X]	–	–	53.4 ± 0.93	99.9 ± 3.56	–	–	–	–	poor inhibition	47.9 ± 1.37	78.3 ± 4.79	54.5 ± 1.84	–	–	–	–	–	–	–
CCOC(=O)C(=O)c1c[nH]c2ccccc12 [VI]	–	–	154 ± 18.1	> 200	–	–	–	–	poor inhibition	> 200	> 200	53.8 ± 2.43	–	–	–	–	–	–	–
O=C(c1cn(S(=O)(=O)O)c2ccccc12)c1cn(S(=O)(=O)O)c2ccccc12 [XI, 3,3'-carbonylbis(1H-indole-1-sulfonic acid)]	–	–	–	–	–	–	–	–	–	–	–	–	–	–	–	–	–	–	highly insoluble
CCOC(=O)C(=O)c1cn(S(=O)(=O)c2ccc(C)cc2)c2ccccc12 [VII]	–	–	43.5 ± 3.72	17.1 ± 1.87	–	–	–	–	–	32.1 ± 0.84	13.8 ± 2.02	32.1 ± 3.01	–	–	–	–	–	–	–

— article PMC9412534, “Diindolylmethane Derivatives: New Selective Blockers for T-Type Calcium Channels” (Membranes, 2022)
